From ChEMBL document CHEMBL1287809, “Ixorapeptide I and ixorapeptide II, bioactive peptides isolated from Ixora coccinea” (Bioorg Med Chem Lett, 2010) come the findings set out here.

The structures appear in SMILES notation. Values after ≈ are worked out from the molar mass of the structure shown. Where a SMILES comes first, the peptide text is derived from it. The star is where a group is joined. Fmoc = O=C(OCC1c2ccccc2-c2ccccc21)*

Test [1] can be described thus: Antiinflammatory activity in human neutrophils assessed as inhibition of FMLP/CB-induced elastase release at 10 ug/ml. To be noted: Neutrophil. It counts as functional.
A short description of test [2]: Antiinflammatory activity in human neutrophils assessed as inhibition of FMLP/CB-induced superoxide anion release. It counts as functional, cell-based. To be noted: Neutrophil.
Test [3] is described as follows: Antiinflammatory activity in human neutrophils assessed as inhibition of FMLP/CB-induced superoxide anion release at 10 ug/ml. Format: functional. To be noted: Neutrophil.
Test [4] is described as follows: Antiaggregatory activity in human platelets assessed as inhibition of collagen-induced platelet aggregation by aggregometry. Format: functional, cell-based.
Test [5] in a line: Antiaggregatory activity in human platelets assessed as inhibition of thrombin-induced platelet aggregation by aggregometry. Format: functional, cell-based.
Test [6] is described as follows: Antiinflammatory activity in human neutrophils assessed as inhibition of FMLP/CB-induced elastase release. It counts as functional, cell-based, Neutrophil. To be noted: for IC50: Homo sapiens, Neutrophil.
Test [7] in a line: Antiinflammatory activity in human Neutrophil assessed as inhibition of elastase release at 10 ug/ml. Format: functional, cell-based.
Test [8] in a line: Antiinflammatory activity in human Neutrophil assessed as inhibition of superoxide anion release at 10 ug/ml. It counts as functional, cell-based.
The test system of a further test is Ca9-22. Kind of test: Cytotoxicity against human Ca9-22 cells by MTT assay. It counts as functional, cell-based.
Another test relates to HepG2. Description: Cytotoxicity against human HepG2 cells by MTT assay. It counts as functional, cell-based.
The next test deals with MCF7. Kind of test: Cytotoxicity against human MCF7 cells by MTT assay. Format: functional, cell-based.
Test [9] in a line: Cytotoxicity against human Hep3B cells by MTT assay. It counts as functional, cell-based, Hep 3B2.
The next test has as its system A549. Kind of test: Cytotoxicity against human A549 cells by MTT assay. It counts as functional, cell-based.
The test system of another test is MDA-MB-231. Description: Cytotoxicity against human MDA-MB-231 cells by MTT assay. It counts as functional, cell-based.
A further test has as its system Neutrophil. Kind of test: Ratio of compound IC50 to PMSF IC50 for antiinflammatory activity in human neutrophils assessed as inhibition of FMLP/CB-induced elastase release. Format: functional.

In the case of `CCCCCCCCCCCCCCCCCCCC(=O)OCC(O)CO` (centres undefined), the inhibition at 10 µg/mL in test [1] came out at 41.8%. The IC50 in [2] is 2.47 µg/mL (≈ 6.39 µM).

As to `CC(=O)OC[C@]1(C)CCC[C@]2(C)[C@@H]1CC[C@]13C[C@H](CC[C@H]12)[C@@H](C(=O)O)C3`, in [1], the inhibition at 10 µg/mL was determined as 44.7%. In addition, the IC50 in [2] worked out at 5.11 µg/mL (≈ 14.1 µM).

Regarding `C[C@@]1(CO)CCC[C@]2(C)[C@@H]1CC[C@]13C[C@H](CC[C@H]12)[C@@H](C(=O)O)C3`, the inhibition at 10 µg/mL in test [1] amounted to 15.6%; in [3] it was 31.8%.

Turning to `C[C@H]1O[C@H](Oc2cc(O)c3c(=O)c(O)c(-c4ccc(O)cc4)oc3c2)[C@@H](O)[C@@H](O)[C@@H]1O`, the IC50 is 34.8 µg/mL (≈ 80.4 µM) in [4] and greater than 50 µg/mL in test [5].

In the case of `Oc1ccc([C@]23Oc4cc(O)cc(O)c4[C@H](c4c(cc(O)c5c4O[C@@H](c4ccc(O)c(O)c4)[C@@H](O)C5)O2)[C@H]3O)cc1`, in test [6], the “inhibition (INH)” value is 2.5%.

Take `Oc1cc(O)c2c(c1)O[C@H](c1ccc(O)c(O)c1)[C@H](O)C2` [(-)-EPICATECHIN]: the results for the IC50 in [4] and in [5] were 22.2 µg/mL (≈ 76.5 µM) and greater than 50 µg/mL, respectively.

`CC(=O)Oc1ccccc1C(=O)O` [ASPIRIN]: the IC50 in test [4] was 13.6 µg/mL (≈ 75.4 µM); in [5] it was greater than 50 µg/mL.

`C=C(C)[C@@H]1CC[C@]2(C(=O)O)CC[C@]3(C)[C@H](CC[C@@H]4[C@@]5(C)CCC(=O)C(C)(C)[C@@H]5CC[C@]43C)[C@@H]12` [BETUNOLIC ACID]: the IC50 in test [7] is 128 µg/mL (≈ 281 µM); in test [8], 16.8 µg/mL (≈ 36.9 µM); with Ca9-22, 14.5 µg/mL (≈ 31.8 µM); in test [4], 44.7 µg/mL (≈ 98.3 µM); in test [5], greater than 50 µg/mL; with HepG2 it was 4.32 µg/mL (≈ 9.5 µM). Further, the IC50 in the test on MCF7 is 19.3 µg/mL (≈ 42.5 µM); in test [9], 13.8 µg/mL (≈ 30.4 µM); with A549 it was 8.93 µg/mL (≈ 19.6 µM); with MDA-MB-231, greater than 20 µg/mL.

In the case of `Oc1cc(O)c2c(c1)O[C@H](c1ccc(O)c(O)c1)[C@@H](O)C2` [CIANIDANOL], the IC50 was 27.6 µg/mL (≈ 95.3 µM) in [4] and greater than 50 µg/mL in test [5].

Consider `c1ccc2c(c1)[I+]c1ccccc1-2` [DIPHENYLENEIODONIUM], for which the IC50 in [2] was 0.35 µg/mL.

`COc1cccc2c1C(=O)c1c(O)c3c(c(O)c1C2=O)C[C@@](O)(C(=O)CO)C[C@@H]3O[C@H]1C[C@H](N)[C@H](O)[C@H](C)O1` [DOXORUBICIN]: the IC50 is 14.5 µg/mL (≈ 26.6 µM) in the test with Ca9-22; 0.23 µg/mL (≈ 0.423 µM) in the test on HepG2; 0.42 µg/mL (≈ 0.773 µM) in test [9]; 0.63 µg/mL (≈ 1.16 µM) in the test with A549; 1.32 µg/mL (≈ 2.43 µM) in the test on MDA-MB-231.

Take `CC[C@H](C)[C@H](NC(=O)C(NC(=O)[C@H](Cc1ccccc1)N(C)C)C(C(C)C)n1ccc2ccccc21)C(=O)O` (some centres undefined) [IXORAPEPTIDE II]: the “Ratio IC50” value in the test with Neutrophil is 73. The half-maximal inhibitory concentration (IC50) in [2] was 0.21 µg/mL (≈ 0.393 µM); in test [6], 0.27 µg/mL (≈ 0.505 µM).

`COC(=O)[C@H](Cc1ccccc1)NC(=O)[C@@H](NC(=O)OCC1c2ccccc2-c2ccccc21)C(C)C` [IXORAPEPTIDE I] (Fmoc-Val-Phe-OMe): the IC50 in the test on Ca9-22 was 20 µg/mL (≈ 40 µM); in test [4], 29.5 µg/mL (≈ 59 µM); in test [5], 20.5 µg/mL (≈ 41 µM); in the test on HepG2 it was greater than 20 µg/mL; with MCF7, greater than 20 µg/mL; in [9], 3.36 µg/mL (≈ 6.71 µM). Also, the IC50 in the test with A549 and with MDA-MB-231 was greater than 20 µg/mL each time.

Regarding `C[C@@H]1O[C@@H](Oc2cc(O)c3c(=O)c(O[C@@H]4O[C@@H](C)[C@H](O)[C@@H](O)[C@H]4O)c(-c4ccc(O)cc4)oc3c2)[C@H](O)[C@H](O)[C@H]1O` [KAEMPFERITRIN], the inhibition at 10 µg/mL in test [1] is 12.5%; in [3], 8.27%.

As to `O=c1c(O)c(-c2ccc(O)cc2)oc2cc(O)cc(O)c12` [KAEMPFEROL], the IC50 in the test with Ca9-22 is greater than 20 µg/mL; in test [4], 3.55 µg/mL (≈ 12.4 µM); in test [5] it was greater than 50 µg/mL; in the test with HepG2, greater than 20 µg/mL; in the test with MCF7, greater than 20 µg/mL; in test [9] it was 17.7 µg/mL (≈ 62 µM). For the same molecule, the IC50 in the test with A549 and in the test with MDA-MB-231 was greater than 20 µg/mL each time.

For `C=C(C)[C@@H]1CC[C@]2(C)CC[C@]3(C)[C@H](CC[C@@H]4[C@@]5(C)CC[C@H](O)C(C)(C)[C@@H]5CC[C@]43C)[C@@H]12` [LUPEOL], the IC50 with Ca9-22 is 16.8 µg/mL (≈ 39.3 µM); with HepG2, 19.8 µg/mL (≈ 46.4 µM); with MCF7, greater than 20 µg/mL; in test [9] it was 18.8 µg/mL (≈ 44.1 µM); with A549, greater than 20 µg/mL; in the test with MDA-MB-231, greater than 20 µg/mL.

For the molecule `O=c1cc(-c2ccc(O)c(O)c2)oc2cc(O)cc(O)c12` [LUTEOLIN], the IC50 in the test on Ca9-22 is 8.55 µg/mL (≈ 29.9 µM); in [4] it was 2.56 µg/mL (≈ 8.94 µM); in test [5], greater than 50 µg/mL; in the test on HepG2 it was 7.36 µg/mL (≈ 25.7 µM); in the test with MCF7 it was 9.5 µg/mL (≈ 33.2 µM); in [9], 8.03 µg/mL (≈ 28.1 µM). For the same molecule, the IC50 in the test with A549 stood at 10.2 µg/mL (≈ 35.7 µM); in the test on MDA-MB-231, 9.65 µg/mL (≈ 33.7 µM).

As for `CC1(C)CC[C@]2(C(=O)O)CC[C@]3(C)C(=CC[C@@H]4[C@@]5(C)CCC(=O)C(C)(C)[C@@H]5CC[C@]43C)[C@@H]2C1` [OLEANONIC ACID], the IC50 in the test with Ca9-22 is 18 µg/mL (≈ 39.7 µM); in the test on HepG2, greater than 20 µg/mL; in the test with MCF7 it was greater than 20 µg/mL; in [9], greater than 20 µg/mL; in the test with A549 it was greater than 20 µg/mL; with MDA-MB-231 it was greater than 20 µg/mL.

Turning to `O=S(=O)(F)Cc1ccccc1` [PHENYLMETHYLSULFONYLFLUORIDE], the IC50 in test [6] was determined as 19.9 µg/mL (≈ 114 µM).

On to `COc1cc2ccc(=O)oc2cc1O` [SCOPOLETIN], for which the values for the IC50 in test [4] and in test [5] were 41.7 µg/mL (≈ 217 µM) and greater than 50 µg/mL, respectively.

In the case of `C[C@H]1[C@H](C)CC[C@]2(C(=O)O)CC[C@]3(C)C(=CC[C@@H]4[C@@]5(C)CC[C@H](O)C(C)(C)[C@@H]5CC[C@]43C)[C@H]12` [URSOLIC ACID], the IC50 in test [4] is 34.5 µg/mL (≈ 75.6 µM); in test [5], greater than 50 µg/mL; in test [2] it was 0.29 µg/mL (≈ 0.635 µM); in test [6], 0.31 µg/mL (≈ 0.679 µM).
